Measurements published in paper PMC12811501, “A plant-derived antimicrobial peptide with multiple mechanisms of action exhibiting antibacterial and antibiofilm activities comparable to or superior to polymyxin B” (Current Research in Microbial Sciences, 2025).
Residues, ends and D or L forms follow the SMILES beside them. No end group written: not given here.

Key:
[1] = Peptide-lipid overlay assay; format: binding; conditions: 2 μM peptide, 1 h
Experimental: Membrane lipid strips (Echelon Biosciences, P-6002) were incubated for 1 h in blocking solution (3 % BSA in TBS-Tween 0.1 %) with gentle agitation followed by four 8-min washes in TBS-Tween. Then, strips were incubated with 2 μM of NCR169C17–38 in blocking solution for 1 h. Not bound peptide was washed off by four 8-min washes in TBS-Tween. The bound StrepII-tagged peptide was then detected on the strips using the same procedure described for the dot blot, except that chemiluminescence was visualized with an iBright™ FL1500 Imaging System (Invitrogen).
As shown above, NCR169C17–38 causes rapid damage to bacterial membranes. Since membrane structure is largely determined by its lipid composition, we next investigated the ability of NCR169C17–38-StrepII to bind membrane lipids in vitro using a peptide-lipid overlay assay (Supplementary Fig. 3.A). NCR169C17–38-StrepII bound to several anionic lipids, including phosphoinositides, phosphatidic acid, phosphatidylserine, and cardiolipin - a major constituent of bacterial membranes.

[2] = 25, 12.5, 6.3, 3.1 µM in PPB, overnight at room temperature or 80 °C for 20 min; StrepII detection
Experimental: For heat stability test serial dilutions of the NCR169C17–38-StrepII peptide were prepared in PPB at concentrations of 25, 12.5, 6.3, 3.1 µM, following the same protocol used in the antimicrobial assay. One set of samples was incubated overnight at 37 °C with shaking, another set was subjected to heat stress at 80 °C for 20 min, while one set was freshly prepared. Dot-blot analysis was performed by spotting 5 µl of each peptide solution onto a 0.22 µm nitrocellulose membrane (Bio-Rad). Detection of the StrepII-tagged peptide was carried out using the Precision Protein StrepTactin-HRP conjugate (Bio-Rad), following the manufacturer’s recommended protocol. Signal development was achieved using the Clarity Western ECL Substrate (Bio-Rad), with the membrane incubated for 5 min at room temperature, followed by exposure to Fuji Medical X-ray film for visualization.
Peptide dilutions (25, 12.5, 6.3, and 3.1 µM) in PPB were either incubated overnight at room temperature (RT) or heated at 80 °C for 20 min.

[3] = system: E. coli; test: Antimicrobial test after heat stress or storage of the peptide; format: cell-based, Escherichia coli; conditions: then tested against E. coli, 3.1 µM = lowest dilution tested
Experimental: (B) NCR169C17-38-StrepII remains active against E. coli even at 3.1 µM after 20 minutes of treatment at 80 °C or incubation at room temperature for 24 hrs. Bacterial viability was assessed by plating 5 µL aliquots after treatment on LB agar. Only non-treated control cells could grow.

[4] = format: physicochemical; conditions: pH 7.4
[5] = system: Enterococcus faecalis (ATCC 29212); test: Minimal bactericidal concentration (MBC) assay; format: cell-based
Source text: (§1) The Gram-positive strains Enterococcus faecalis (ATCC 29212), Staphylococcus aureus (HNCMO112011), and Listeria monocytogenes (ATCC 19111), and the Gram-negative strains Pseudomonas aeruginosa (ATCC 27853), Escherichia coli (ATCC 8739), Salmonella enterica (ATCC 13076), Klebsiella pneumoniae (NCTC 13440), and Acinetobacter baumannii (ATCC 17978) were obtained from ATCC (United States) and NCTC (National Collection of Type Cultures – England).
(§2) Minimal bactericidal concentrations (MBC) of peptides and reference antibiotics were determined in 20 mM potassium phosphate buffer (PPB, pH 7.4) and Mueller–Hinton broth (MHB) as described by ([Jenei et al., 2020]). Briefly, bacterial cultures were grown to mid-log phase, washed, adjusted to OD₆₀₀ = 0.1 (∼10⁷ CFU/mL), added 10 μl of it into 100 μl mixture and incubated in 96-well plates with 2-fold serial dilutions of peptides or antibiotics. After incubation at 37 °C with shaking, bacterial viability was assessed by plating 5 μL aliquots on LB agar. MBC was defined as the lowest concentration yielding no colony growth. Experiments were done at least in three biological replicates.
(§3) NCR169, its oxidized form (NCR169ox), and its variant in which the four cysteines were replaced with serines (NCR169-C9,15,28,33/S) (Table 1.A) were chemically synthesized with C-terminal amidation. These peptides were tested for antimicrobial activity against a panel of ESKAPE pathogens - Enterococcus faecalis, Staphylococcus aureus, Klebsiella pneumoniae, Acinetobacter baumannii, Pseudomonas aeruginosa, E. coli - as well as Listeria monocytogenes and Salmonella enterica. Peptides were applied to 10^6 log-phase bacterial cultures in a two-fold dilution series (25 - 0.1 µM) in potassium phosphate buffer (PPB) at pH 7.4. After three hours of incubation, 5 µl of each treatment was plated on LB agar and incubated overnight at 37 °C to assess bacterial survival. Minimal bactericidal concentrations (MBCs), defined as the lowest concentration eliminating bacterial growth, are presented in Table 1B.

[6] = system: Salmonella enterica (ATCC 13076); test: Minimal bactericidal concentration (MBC) assay; format: cell-based; conditions: short derivatives; 20 mM PPB at pH 7.4
Source text: as §1, §2, §3

[7] = system: Listeria monocytogenes (ATCC 19111); test: Minimal bactericidal concentration (MBC) assay; format: cell-based; conditions: short derivatives; 20 mM PPB at pH 7.4
Source text: as §1, §2, §3

[8] = system: Klebsiella pneumoniae (NCTC 13440); test: Minimal bactericidal concentration (MBC) assay; format: cell-based; conditions: short derivatives; 20 mM PPB at pH 7.4
Source text: as §1, §2, §3

[9] = system: Pseudomonas aeruginosa (ATCC 27853); test: Minimal bactericidal concentration (MBC) assay; format: cell-based; conditions: short derivatives; 20 mM PPB at pH 7.4
Source text: as §1, §2, §3

[10] = system: Acinetobacter baumannii (ATCC 17978); format: cell-based; conditions: short derivatives; 20 mM PPB at pH 7.4
Source text: as §1, §2, §3

[11] = system: Staphylococcus aureus (HNCMO112011); format: cell-based; conditions: for MBC S. a.: short derivatives, 20 mM PPB at pH 7.4
Source text: as §1, §2, §3

[12] = system: Escherichia coli (ATCC 8739); format: cell-based; conditions: ATCC 8739, 3 h
Source text: as §1
as §2, with “Experiments were done at least in three biological replicates.” left out
Three biological replicates were treated at OD600 = 0.2 with a final concentration of 1.6 µM NCR169C17–38 peptide for 20 min, while the control samples were treated with the same amount of water for 20 min. […] Quality and quantity was detected using 2200 TapeStation (Agilent) and Qubit RNA BR Assay […]

[13] = short derivatives, 20 mM PPB at pH 7.4

| Compound | MBC S. e. [6] | MBC L. m. [7] | MBC K. p. [8] | MBC P. a. [9] | MBC E. f. [5, 13] | MBC S. a. [11] | also measured |
| --- | --- | --- | --- | --- | --- | --- | --- |
| CC[C@H](C)[C@H](NC(=O)[C@H](CCCCN)NC(=O)[C@H](Cc1ccccc1)NC(=O)[C@H](CC(C)C)NC(=O)[C@@H]1CCCN1C(=O)[C@H](CCCCN)NC(=O)[C@H](CCCCN)NC(=O)[C@H](CO)NC(=O)[C@@H](N)CCCCN)C(=O)N[C@@H](Cc1c[nH]c2ccccc12)C(=O)N[C@@H](CCCCN)C(=O)N[C@@H](CS)C(=O)N[C@H](C(=O)N[C@@H](CCC(=O)O)C(=O)N[C@@H](CC(N)=O)C(=O)N[C@H](C(=O)N[C@@H](CS)C(=O)N[C@H](C(=O)N[C@@H](CC(C)C)C(=O)N[C@@H](Cc1c[nH]c2ccccc12)C(=O)N[C@@H](Cc1ccc(O)cc1)C(=O)N[C@@H](CCCCN)C(=O)N[C@@H](Cc1c[nH]c2ccccc12)C(=O)N[C@@H](CO)C(=O)N[C@@H](Cc1c[nH]cn1)C(=O)N1CCC[C@H]1C(=O)N[C@@H](CCC(N)=O)C(=O)N[C@@H](Cc1ccccc1)C(=O)N[C@@H](CCC(=O)O)C(=O)N[C@@H](CCCCN)C(N)=O)C(C)C)C(C)C)C(C)C [NCR169C17–38-StrepII] (H-KSKKPLFKIWKCVENVCVLWYKWSHPQFEK-NH2; N-terminus assumed) |  |  |  |  |  |  | binding to phosphatidylglycerol (PG) on lipid strip [1]: did not bind; binding to anionic lipids on lipid strip ([1]; phosphoinositides, phosphatidic acid, phosphatidylserine, cardiolipin): bound; peptide stability by dot blot [2]: confirmed its stability; lowest concentration still bactericidal after heat stress ([3]; peptide in PPB heated 20 minutes at 80 °C): ≤ 3.1 µM; lowest concentration still bactericidal after storage ([3]; peptide in PPB incubated at room temperature for 24 hrs (overnight)): ≤ 3.1 µM |
| EDIGHIKYCGIVDDCYKSKKPLFKIWKCVENVCVLWYK (disulfide) (disulfide (positions not given here); also: disulfide pairing not given here) [NCR169ox, oxidized form of NCR169] |  |  |  |  |  |  | solubility / visible turbidity upon peptide addition [4]: no visible turbidity; MBC E. f. ([5]; PPB pH 5.8, 3 h treatment, plated on LB agar): - (lack of bactericidal activity up to 25 µM); MBC E. f. ([5]; PPB pH 7.4, 3 h treatment, 10^6 log-phase bacteria, two-fold dilutions 25-0.1 µM, plated on LB agar, * = best MBC value measured, more than two fold dilution differences in replicates): - (lack of bactericidal activity up to 25 µM) |
| KCVENVCVLWYK [NCR169_27–38, shorter C-terminal fragment of NCR169C17–38] | - (lack of bactericidal activity up to 25 µM) | - (lack of bactericidal activity up to 25 µM) | - (lack of bactericidal activity up to 25 µM) | - (lack of bactericidal activity up to 25 µM) | - (lack of bactericidal activity up to 25 µM) | - (lack of bactericidal activity up to 25 µM) | MBC A. b. [10]: - (lack of bactericidal activity up to 25 µM) |
| PLFKIWKCVENVCVLWYK [NCR169_21–38, shorter C-terminal fragment of NCR169C17–38] | - (lack of bactericidal activity up to 25 µM) | - (lack of bactericidal activity up to 25 µM) | - (lack of bactericidal activity up to 25 µM) | - (lack of bactericidal activity up to 25 µM) | - (lack of bactericidal activity up to 25 µM) | - (lack of bactericidal activity up to 25 µM) |  |
| YKSKKPLFKIWK-NH2 [NCR169_16–27] |  |  |  |  |  |  | MBC Ec [12]: 6.3 µM; MBC Sa ([11]; HNCMO112011, 3 h): 25 µM |
